Experimental data as given in article PMC10600239, “Selective MCL-1 inhibitor ABBV-467 is efficacious in tumor models but is associated with cardiac troponin increases in patients” (Communications Medicine, 2023).
“And” between values parts separate entries of the source, which are not always exact repeats. Equal values may be shown once.

System: MV4-11-Red.Fluc
Assay: Systemic MV4-11-Red.Fluc model (bioluminescence, total flux)
Format: in vivo, mouse
Procedure: All animal studies were conducted in accordance with the guidelines approved by the Institutional Animal Care and Use Committees of AbbVie. The research protocol was approved by In Vivo Pharmacology at AbbVie prior to study initiation but was not publicly registered or disclosed. Female C.B-17 SCID-beige mice (AMO-1, OPM-2, NCI-H929, and OCI-AML2 xenografts) and female NSG mice (MV4-11-Red.Fluc systemic) were purchased from Charles River Laboratories (Wilmington, MA). Animals were housed in a light cycle-controlled room with HEPA filtration at 22 °C. Animals had nesting and climbing cage topper as the primary environmental enrichment. Animals were inoculated subcutaneously in the right flank with 5 × 10^6 (AMO-1, OPM-2, NCI-H929, and OCI-AML2) or intravenous (IV) with 5 × 10^6 (MV4-11-Red.Fluc). The inoculation volume (0.2 mL) comprised a 50:50 mixture of cells in growth media and Matrigel (BD Biosciences) for subcutaneous injections and 100% phosphate-buffered saline for IV administration. All cell lines used in this publication were authenticated using IDEXX for STR profiling as well as their IMPACT and human IMPACT panels for pathogen screening. Electronic calipers were used to measure the length and width of each tumor 2 to 3 times per week. Tumor volume was estimated by applying the following equation: volume = length × width^2/2. All groups remained blinded during measurements and dosing; only veterinary staff were aware of group identity. When tumors reached approximately 200 mm^3, mice were randomized by match and distributed into treatment and control groups. All xenograft trials were conducted using 5 to 10 mice per group, and all mice were ear tagged and monitored individually throughout the studies. Any animal with a tumor above 2000 mm^3 or 15% loss in body weight was euthanized and removed from the study. Tumor burden in the systemic MV4-11-Red.Fluc experiment was measured using an IVIS® spectrum from PerkinElmer by taking the total photon flux of the entire dorsal side of an individual mouse. Ten minutes prior to imaging, animals received intraperitoneally 0.2 mL of a 15-mg/mL solution of D-Luciferin (PerkinElmer, Catalog #122799) formulated in 100% phosphate-buffered saline. Animals were anesthetized using 3.5% isoflurane and maintained using 2%. Six days after inoculation, animals were imaged and randomized into vehicle and treatment groups at a total flux of ~1 × 10^8. A background control mouse that was tumor naive but received D-Luciferin was placed in the upper left corner of each image. The total flux from this animal was subtracted from the total flux of each animal present in the image. […]

[1] = Day 10, individual mice (ROI 2-10), listed as ABT-199
[2] = Day 13, individual mice (ROI 2-10), listed as ABT-199
[3] = Day 17, individual mice (ROI 2-10), listed as ABT-199
[4] = Day 20, individual mice (ROI 2-10), listed as ABT-199
[5] = Day 24, individual mice (ROI 2-10), listed as ABT-199
[6] = Day 31, individual mice (ROI 2-10), listed as ABT-199

CC1(C)CCC(CN2CCN(c3ccc(C(=O)NS(=O)(=O)c4ccc(NCC5CCOCC5)c([N+](=O)[O-])c4)c(Oc4cnc5[nH]ccc5c4)c3)CC2)=C(c2ccc(Cl)cc2)C1 [venetoclax]
antitumor activity (50 mg/kg for 21 days, PO): no antitumor activity | Total Flux (648 h): 2.48E+10 p/s | Total Flux minus ROI 1 (background) (648 h): 2.48E+10 p/s | Total Flux [p/s] [1]: 3.06E+08 p/s and 5.81E+08 p/s and 2.31E+08 p/s and 9.72E+08 p/s and 7.29E+08 p/s and 4.72E+08 p/s and 3.55E+08 p/s and 4.65E+08 p/s and 4.49E+08 p/s | Total flux minus background control mouse (ROI 1) [1]: 3.02E+08 p/s and 5.77E+08 p/s and 2.27E+08 p/s and 9.68E+08 p/s and 7.24E+08 p/s and 4.68E+08 p/s and 3.50E+08 p/s and 4.61E+08 p/s and 4.45E+08 p/s | Total Flux [p/s] [2]: 1.30E+09 p/s and 1.10E+09 p/s and 6.50E+08 p/s and 9.71E+08 p/s and 1.65E+09 p/s and 8.95E+08 p/s and 8.72E+08 p/s and 1.18E+09 p/s and 1.23E+09 p/s | Total flux minus background control mouse (ROI 1) [2]: 1.29E+09 p/s and 1.09E+09 p/s and 6.41E+08 p/s and 9.63E+08 p/s and 1.64E+09 p/s and 8.87E+08 p/s and 8.64E+08 p/s and 1.18E+09 p/s and 1.22E+09 p/s | Total Flux [p/s] [3]: 3.56E+09 p/s and 4.83E+09 p/s and 3.68E+09 p/s and 6.21E+09 p/s and 6.82E+09 p/s and 2.69E+09 p/s and 4.42E+09 p/s and 4.69E+09 p/s and 4.88E+09 p/s | Total flux minus background control mouse (ROI 1) [3]: 3.54E+09 p/s and 4.80E+09 p/s and 3.65E+09 p/s and 6.19E+09 p/s and 6.79E+09 p/s and 2.67E+09 p/s and 4.40E+09 p/s and 4.67E+09 p/s and 4.85E+09 p/s | Total Flux [p/s] [4]: 8.57E+09 p/s and 1.38E+10 p/s and 5.34E+09 p/s and 1.24E+10 p/s and 6.94E+09 p/s and 6.64E+09 p/s and 8.48E+09 p/s and 1.02E+10 p/s and 9.62E+09 p/s | Total flux minus background control mouse (ROI 1) [4]: 8.51E+09 p/s and 1.38E+10 p/s and 5.28E+09 p/s and 1.23E+10 p/s and 6.88E+09 p/s and 6.58E+09 p/s and 8.42E+09 p/s and 1.02E+10 p/s and 9.56E+09 p/s | Total Flux [p/s] [5]: 9.23E+09 p/s and 1.74E+10 p/s and 6.63E+09 p/s and 2.32E+10 p/s and 2.87E+10 p/s and 1.25E+10 p/s and 1.47E+10 p/s and 1.56E+10 p/s and 1.06E+10 p/s | Total flux minus background control mouse (ROI 1) [5]: 9.16E+09 p/s and 1.73E+10 p/s and 6.56E+09 p/s and 2.31E+10 p/s and 2.87E+10 p/s and 1.24E+10 p/s and 1.46E+10 p/s and 1.55E+10 p/s and 1.06E+10 p/s | Total Flux minus ROI 1 (background) (Day 27, individual ROI (one per animal), background-subtracted, listed as ABT-199): 2.02E+10 p/s and 1.49E+10 p/s and 4.29E+10 p/s and 4.73E+10 p/s and 2.09E+10 p/s and 3.23E+10 p/s and 1.93E+10 p/s and 2.82E+10 p/s | Total Flux (Day 27, individual ROI (one per animal, ROI 2-10), raw value, listed as ABT-199): 2.04E+10 p/s and 1.50E+10 p/s and 4.31E+10 p/s and 4.74E+10 p/s and 2.11E+10 p/s and 3.24E+10 p/s and 1.94E+10 p/s and 2.84E+10 p/s | Total Flux [p/s] [6]: 3.95E+10 p/s and 4.22E+10 p/s and 3.73E+10 p/s and 1.10E+11 p/s and 6.34E+10 p/s and 6.46E+10 p/s and 6.17E+10 p/s and 4.73E+10 p/s and 4.87E+10 p/s | Total flux minus background control mouse (ROI 1) [6]: 3.92E+10 p/s and 4.19E+10 p/s and 3.70E+10 p/s and 1.10E+11 p/s and 6.31E+10 p/s and 6.43E+10 p/s and 6.13E+10 p/s and 4.70E+10 p/s and 4.84E+10 p/s | Total Flux minus ROI 1 (background) (Day 34, individual ROI (one per animal), background-subtracted, listed as ABT-199): 6.39E+10 p/s and 5.69E+10 p/s and 4.58E+10 p/s and 3.00E+11 p/s and 1.05E+11 p/s and 1.25E+11 p/s and 8.20E+10 p/s and 1.20E+11 p/s and 6.30E+10 p/s | Total Flux (Day 34, individual ROI (one per animal, ROI 2-10), raw value, listed as ABT-199): 6.47E+10 p/s and 5.77E+10 p/s and 4.66E+10 p/s and 3.01E+11 p/s and 1.06E+11 p/s and 1.26E+11 p/s and 8.28E+10 p/s and 1.21E+11 p/s and 6.39E+10 p/s | Total Flux minus ROI 1 (background) (Day 38, individual ROI (one per animal), background-subtracted, listed as ABT-199): 3.53E+10 p/s and 1.45E+11 p/s and 3.00E+11 p/s and 1.27E+11 p/s and 1.37E+11 p/s and 1.69E+11 p/s and 9.41E+10 p/s and 1.57E+11 p/s | Total Flux (Day 38, individual ROI (one per animal, ROI 2-10), raw value, listed as ABT-199): 3.60E+10 p/s and 1.46E+11 p/s and 3.01E+11 p/s and 1.27E+11 p/s and 1.38E+11 p/s and 1.69E+11 p/s and 9.48E+10 p/s and 1.57E+11 p/s | Total Flux minus ROI 1 (background) (Day 41, individual ROI (one per animal), background-subtracted, listed as ABT-199): 2.65E+11 p/s and 1.77E+09 p/s and 1.55E+11 p/s and 4.70E+11 p/s and -1.25E+08 p/s and 2.06E+11 p/s and 5.84E+11 p/s and 2.05E+08 p/s and 1.78E+11 p/s | Total Flux (Day 41, individual ROI (one per animal, ROI 2-10), raw value, listed as ABT-199): 2.66E+11 p/s and 3.30E+09 p/s and 1.57E+11 p/s and 4.71E+11 p/s and 1.41E+09 p/s and 2.08E+11 p/s and 5.85E+11 p/s and 1.74E+09 p/s and 1.80E+11 p/s | Total Flux minus ROI 1 (background) (Day 45, individual ROI (one per animal), background-subtracted, listed as ABT-199): -3.57E+08 p/s and -4.07E+08 p/s and -2.51E+08 p/s and -8.01E+08 p/s and 2.76E+08 p/s and 4.15E+11 p/s and -2.10E+07 p/s and 1.27E+08 p/s and 8.71E+11 p/s | Total Flux (Day 45, individual ROI (one per animal, ROI 2-10), raw value, listed as ABT-199): 9.69E+08 p/s and 9.19E+08 p/s and 1.08E+09 p/s and 5.25E+08 p/s and 1.60E+09 p/s and 4.16E+11 p/s and 1.30E+09 p/s and 1.45E+09 p/s and 8.72E+11 p/s | Total Flux minus ROI 1 (background) (Day 52, individual ROI (one per animal), background-subtracted, listed as ABT-199): 4.43E+11 p/s and 2.98E+10 p/s
